Measurements reported in patent publication US5869609A, “G protein coupled glutamate receptors” (priority 1995, dated 1999).
Where two headings read alike, the source gives them in different places.

How the values were obtained:
[1] = biological target: T1, GluG R encoded by clone 45-A (Rattus norvegicus, UniProt P23385); experiment: Voltage clamp assay of inhibition of glutamic acid-evoked current in injected oocytes; format: cell-based; conditions: 1 mM DL-AP3; 10 μM glutamic acid; read-out: current evoked by 10 μM glutamic acid, % of the control
T1 construct: expressed in transfected cells; host or cells: Xenopus oocytes injected with RNA transcribed in vitro from clone 45-A
T1 sequence (P23385 19-1199): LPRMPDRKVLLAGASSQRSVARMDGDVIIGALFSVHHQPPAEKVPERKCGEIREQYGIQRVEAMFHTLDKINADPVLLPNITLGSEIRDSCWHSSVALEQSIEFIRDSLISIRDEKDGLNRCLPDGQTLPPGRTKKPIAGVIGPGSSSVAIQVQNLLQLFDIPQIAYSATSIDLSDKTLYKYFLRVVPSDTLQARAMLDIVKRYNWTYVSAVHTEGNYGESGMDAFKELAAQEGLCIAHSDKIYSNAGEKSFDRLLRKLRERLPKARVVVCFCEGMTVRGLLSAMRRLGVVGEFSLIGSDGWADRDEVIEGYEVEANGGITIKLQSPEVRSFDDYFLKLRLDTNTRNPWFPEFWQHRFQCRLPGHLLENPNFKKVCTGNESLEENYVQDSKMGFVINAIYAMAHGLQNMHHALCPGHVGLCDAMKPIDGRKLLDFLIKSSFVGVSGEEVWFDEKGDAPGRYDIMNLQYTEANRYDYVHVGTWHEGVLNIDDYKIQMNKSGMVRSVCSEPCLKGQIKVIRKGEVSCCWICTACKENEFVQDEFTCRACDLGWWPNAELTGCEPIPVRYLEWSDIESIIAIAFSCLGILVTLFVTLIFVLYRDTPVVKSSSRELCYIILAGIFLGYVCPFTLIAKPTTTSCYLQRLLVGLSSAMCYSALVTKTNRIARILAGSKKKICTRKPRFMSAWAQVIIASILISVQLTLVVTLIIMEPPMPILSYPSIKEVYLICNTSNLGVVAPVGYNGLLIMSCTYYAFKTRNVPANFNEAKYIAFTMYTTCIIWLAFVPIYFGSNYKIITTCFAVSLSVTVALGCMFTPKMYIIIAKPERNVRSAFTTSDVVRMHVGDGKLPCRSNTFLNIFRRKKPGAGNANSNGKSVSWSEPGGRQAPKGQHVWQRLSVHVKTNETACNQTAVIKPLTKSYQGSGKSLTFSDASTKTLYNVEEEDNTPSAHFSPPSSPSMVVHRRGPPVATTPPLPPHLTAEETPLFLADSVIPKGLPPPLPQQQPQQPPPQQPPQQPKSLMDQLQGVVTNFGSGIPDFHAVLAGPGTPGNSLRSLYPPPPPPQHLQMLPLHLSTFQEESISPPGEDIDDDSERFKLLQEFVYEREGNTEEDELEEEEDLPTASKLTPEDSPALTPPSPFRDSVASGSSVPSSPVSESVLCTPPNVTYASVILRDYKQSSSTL
Description: Voltage clamp assays were also carried out on injected oocytes to measure the inhibition by the putative glutamate G protein coupled receptor antagonist, 2-amino-3-phosphonopropionic acid (AP3).

[2] = biological target: T1, GluG R encoded by clone 45-A; format: cell-based
GluG R = experiment: Voltage-clamp recording of oocytes injected with RNA from positive pools of the cerebellum library; format: cell-based, rat; conditions: oocyte injected with RNA from subfractionated pool of 14,000 colonies, approximately 100 ng RNA
Description: Plasmid DNA prepared from each of the 10 pools of 100,000 clones, which in total represented one sublibrary of one million clones of the cerebellum cDNA library, was purified by cesium chloride gradient ultracentrifugation. The DNA was transcribed in vitro with T7 RNA polymerase (Pharmacia) in the presence of capped nucleotide (GpppG, Pharamcia). […] The transcription reaction tubes were set up by adding 12 μl of 5× transcription buffer (Stratagene Cloning Systems, La Jolla, Calif.), 3 μl each of 10 mM ATP, CTP, GTP, and UTP, 6 μl of 10 mM GpppG (Pharmacia), 6 μl of 1 mg/ml BSA, 3 μl of 200 mM DTT, 1.5 μl of 40 U/μl RNasin (ProMega Biotech, Madison, Wis.), 8.5 μl of water, 10 μl of cDNA containing 5 to 10 μg DNA, and 1 μl of 70 U/μl T7 RNA polymerase. […] Forty microliters of water was added to the radiolabeled reactions, and 1 μl was removed from each sample and counted to determine total counts. […] The samples were centrifuged to collect the RNA and the RNA pellets were counted to determine the counts incorporated into RNA. […]
The RNA from each of the 10 sublibraries were injected into oocytes as described above and translation was allowed for four days. Expression of GluG R activity was assessed by voltage-clamp assay as described above. […]

[3] = system: rat G protein coupled glutamate receptor; experiment: Competition of quisqualate with tritiated glutamic acid on membranes of transfected BHK cells; format: binding; conditions: membranes of BHK 570 and BHK TK^- ts13 clones
Description: Transfected cell lines expressing GluG R were identified by the binding of ^3 H-glutamate to membrane preparations from transfected cells. Cell lines expressing low to moderate levels of GluG R are used to set up functional screening assays.
Clones of BHK 570 and BHK TK^- ts13 cells expressing the rat G protein coupled glutamate receptor cDNA were plated in two or three 150 mm maxi-plates culture dishes and were grown to confluency. The cells from each plate were scraped in 5 ml of PBS (phosphate buffered saline, Sigma Chemical Co., St. Louis, Mo.), which was pre-chilled to 4° C. The cells were removed to a chilled centrifuged tube, and the plates were each rinsed with 5 ml of chilled PBS and pooled with the cells. The chilled tubes were spun at 1,000 rpm for two minutes, and the supernatant was discarded. The cells were frozen at either -70° C. or on dry ice. In some cases, the cells were left overnight at -70° C. […] The filters were dried in a microwave oven and counted in a […].
Protein determinations were carried out using a Coomassie Blue-based assay from Pierce Chemical Company (Rockford, Ill.) under conditions set forth by the manufacturer. One hundred microliters of undiluted cell homogenate or BSA standard was added to 2 ml of reagent and the optical density was measured at 595 nm. […]

[4] = 100 μM, saturating concentration

NC(CP(=O)(O)O)C(=O)O (racemic) [DL-AP3, 2-amino-3-phosphonopropionic acid]
remaining activity at 1000 µM [1]: 59.3 ± 7.3%

Cc1onc(O)c1CC(N)C(=O)O (stereo not drawn) [AMPA, α-amino-3-hydroxy-5-methyl-isoxazole-4-propionic acid]
response relative to 100 μM L-glutamate [2, 4]: ineffective

NC(CCP(=O)(O)O)C(=O)O (centres unmarked) [APB, 2-amino-4-phosphonobytyric acid]
response relative to 100 μM L-glutamate [2, 4]: ineffective

CN[C@H](CC(=O)O)C(=O)O [NMDA, N-methyl-D-aspartic acid]
response relative to 100 μM L-glutamate ([2]; 100 μM NMDA+10 μM glycine): ineffective

N[C@@H](Cn1oc(=O)[nH]c1=O)C(=O)O [Quisqualic acid, quisqualic acid]
actual peak current in response to quisqualate (estimated from a digital panel meter) (GluG R): approximately 1300 nA
competitive binding to the glutamate receptor expressed by transfected BHK cells [3]: able to competitively bind

N[C@@H](CC(=O)O)C(=O)O [aspartic acid]
response relative to 100 μM L-glutamate ([2]; 1 mM, saturating concentration): ineffective

C=C(C)[C@H]1CN[C@H](C(=O)O)[C@H]1CC(=O)O [kainic acid]
response relative to 100 μM L-glutamate ([2]; 1 mM, saturating concentration): ineffective
